Measured values: the NIST ThermoML archive (doi:10.1007/s10765-010-0766-0)
Where “and” joins values, the source holds several entries; their conditions need not be identical. Equal entries are not always repeated. Numbers after ± are expanded uncertainties.

Experiment: molar heat capacity at constant volume; wn = mass fraction of the nth substance listed
Conditions: Liquid, Vacuum adiabatic calorimetry, w2 = 0.4981

FC(F)C(F)(F)F [pentafluoroethane] + FCF
Conditions	molar heat capacity at constant volume
277.15 K, 11982 kPa	66.66 ± 3 J/K/mol
278.15 K, 12826 kPa	66.08 ± 3 J/K/mol
279.15 K, 13669 kPa	66.51 ± 3 J/K/mol
280.15 K, 14512 kPa	66.73 ± 3 J/K/mol
281.15 K, 15355 kPa	66.15 ± 3 J/K/mol
282.15 K, 16198 kPa	66.44 ± 3 J/K/mol
283.15 K, 17040 kPa	65.86 ± 3 J/K/mol
284.15 K, 17881 kPa	67.75 ± 3.1 J/K/mol
285.15 K, 18722 kPa	66.22 ± 3 J/K/mol
286.15 K, 19563 kPa	66.08 ± 3 J/K/mol
287.15 K, 20403 kPa	66.15 ± 3 J/K/mol
288.15 K, 21239 kPa	65.93 ± 3 J/K/mol
289.15 K, 22077 kPa	67.1 ± 3.1 J/K/mol
291.15 K, 23750 kPa	66.88 ± 3 J/K/mol
292.15 K, 24585 kPa	66.81 ± 3 J/K/mol
293.15 K, 25420 kPa	65.64 ± 3 J/K/mol
294.15 K, 26254 kPa	66.37 ± 3 J/K/mol
295.15 K, 27085 kPa	65.28 ± 2.9 J/K/mol
296.15 K, 27917 kPa	67.31 ± 3.1 J/K/mol
297.15 K, 8118 kPa	66.88 ± 3 J/K/mol
297.15 K, 28747 kPa	66.22 ± 3 J/K/mol
298.15 K, 29575 kPa	66.01 ± 3 J/K/mol
299.15 K, 9422 kPa	68.48 ± 3.1 J/K/mol
300.15 K, 10072 kPa	69.35 ± 3.1 J/K/mol
300.15 K, 10089 kPa	66.22 ± 3 J/K/mol
301.15 K, 10723 kPa	68.99 ± 3.1 J/K/mol
301.15 K, 10737 kPa	69.93 ± 3.1 J/K/mol
302.15 K, 11374 kPa	69.2 ± 3.1 J/K/mol
302.15 K, 11385 kPa	67.31 ± 3.1 J/K/mol
303.15 K, 12024 kPa	69.2 ± 3.1 J/K/mol
303.15 K, 12032 kPa	68.7 ± 3.1 J/K/mol
304.15 K, 12672 kPa	68.91 ± 3.1 J/K/mol
304.15 K, 12680 kPa	68.77 ± 3.1 J/K/mol
305.15 K, 13320 kPa	69.57 ± 3.1 J/K/mol
305.15 K, 13327 kPa	69.06 ± 3.1 J/K/mol
306.15 K, 13970 kPa	69.06 ± 3.1 J/K/mol
306.15 K, 13973 kPa	68.99 ± 3.1 J/K/mol
307.15 K, 14620 kPa	68.62 ± 3.1 J/K/mol and 68.33 ± 3.1 J/K/mol
308.15 K, 15268 kPa	69.71 ± 3.1 J/K/mol and 68.11 ± 3.1 J/K/mol
309.15 K, 15915 kPa	68.62 ± 3.1 J/K/mol
309.15 K, 15917 kPa	69.57 ± 3.1 J/K/mol
310.15 K, 16562 kPa	68.55 ± 3.1 J/K/mol
310.15 K, 16564 kPa	68.84 ± 3.1 J/K/mol
311.15 K, 17208 kPa	69.13 ± 3.1 J/K/mol
311.15 K, 17212 kPa	68.99 ± 3.1 J/K/mol
312.15 K, 17853 kPa	68.91 ± 3.1 J/K/mol
312.15 K, 17859 kPa	68.41 ± 3.1 J/K/mol
313.15 K, 18499 kPa	66.81 ± 3 J/K/mol
313.15 K, 18506 kPa	68.77 ± 3.1 J/K/mol
314.15 K, 19144 kPa	68.48 ± 3.1 J/K/mol
314.15 K, 19153 kPa	69.13 ± 3.1 J/K/mol
315.15 K, 19788 kPa	68.41 ± 3.1 J/K/mol
315.15 K, 19798 kPa	69.35 ± 3.1 J/K/mol
316.15 K, 20432 kPa	68.55 ± 3.1 J/K/mol
316.15 K, 20443 kPa	68.41 ± 3.1 J/K/mol
317.15 K, 21075 kPa	68.48 ± 3.1 J/K/mol
317.15 K, 21088 kPa	68.62 ± 3.1 J/K/mol
318.15 K, 21719 kPa	67.75 ± 3.1 J/K/mol
318.15 K, 21733 kPa	68.55 ± 3.1 J/K/mol
319.15 K, 22362 kPa	68.33 ± 3.1 J/K/mol
319.15 K, 22377 kPa	67.9 ± 3.1 J/K/mol
320.15 K, 23005 kPa	69.71 ± 3.1 J/K/mol
320.15 K, 23021 kPa	69.2 ± 3.1 J/K/mol
321.15 K, 23648 kPa	67.1 ± 3.1 J/K/mol
321.15 K, 23665 kPa	68.33 ± 3.1 J/K/mol
322.15 K, 24289 kPa	70.15 ± 3.2 J/K/mol
322.15 K, 24307 kPa	68.41 ± 3.1 J/K/mol
323.15 K, 24930 kPa	68.41 ± 3.1 J/K/mol
323.15 K, 24949 kPa	69.71 ± 3.1 J/K/mol
324.15 K, 25571 kPa	68.77 ± 3.1 J/K/mol
324.15 K, 25590 kPa	68.04 ± 3.1 J/K/mol
325.15 K, 26210 kPa	67.61 ± 3.1 J/K/mol
325.15 K, 26231 kPa	68.41 ± 3.1 J/K/mol
326.15 K, 26850 kPa	68.62 ± 3.1 J/K/mol
326.15 K, 26871 kPa	68.11 ± 3.1 J/K/mol
327.15 K, 27488 kPa	68.55 ± 3.1 J/K/mol
327.15 K, 27511 kPa	67.75 ± 3.1 J/K/mol
328.15 K, 28127 kPa	68.62 ± 3.1 J/K/mol
328.15 K, 28150 kPa	68.19 ± 3.1 J/K/mol
329.15 K, 5865 kPa	70.22 ± 3.2 J/K/mol
329.15 K, 5904 kPa	72.11 ± 3.3 J/K/mol
329.15 K, 28764 kPa	69.13 ± 3.1 J/K/mol
329.15 K, 28790 kPa	68.62 ± 3.1 J/K/mol
330.15 K, 6231 kPa	73.78 ± 3.5 J/K/mol
330.15 K, 6255 kPa	72.33 ± 3.3 J/K/mol
330.15 K, 6269 kPa	69.13 ± 3.3 J/K/mol
330.15 K, 29402 kPa	68.04 ± 3.1 J/K/mol
330.15 K, 29426 kPa	67.97 ± 3.1 J/K/mol
331.15 K, 6598 kPa	70.66 ± 3.2 J/K/mol
331.15 K, 6620 kPa	71.09 ± 3.2 J/K/mol
331.15 K, 6635 kPa	70.15 ± 3.2 J/K/mol
331.15 K, 30065 kPa	69.93 ± 3.1 J/K/mol
332.15 K, 6965 kPa	73.2 ± 3.3 J/K/mol
332.15 K, 6987 kPa	73.28 ± 3.3 J/K/mol
